Entries after “also recorded” stand apart in the source; their conditions may differ.
Experiments:
[1] = test system: NGF-differentiated PC12 cells; assay: LPA-induced neurite retraction; format: cell-based
Experimental: FIG. 6B represents histograms quantifying the effects of GFP-TRIPα or GFP on LPA (lysophosphatidic acid) induced neurite retraction in NGF-differentiated PC12 cells. The X-axis represents the time after LPA addition in minutes and the Y-axis represents the percentage of transfected cells with neurites.
Cells were transfected with GFP-TRIPα (white bars) or GFP (black bars) and differentiated with NGF (50 ng/ml). 10 μM LPA was added and neurite retraction was followed for 15 minutes. The number of transfected cells with neurites was counted from at least 200 cells in 3 independent experiments.
Among the serum components known to trigger neurite retraction and cell rounding in neuronal cells is lysophosphatidic acid (LPA) (Moolenaar et al., 1997). Thus, a similar neurite retraction assay was performed, except that, instead of the serum-containing medium, LPA (10 μM, Sigma) was added to TRIPα transfected and differentiated PC12 cells (FIG. 6B).

Vav = assay: Binding specificity of aptamers in yeast; design: key: +++^1 and +^1 represent respectively a full and a partial (see FIG. 1) binding capacity; +++^1 and +^1 represent respectively a full and a partial (see FIG. 1) binding capacity; −−^1 represents a lack of binding; conditions: RhoGEF Vav
Excerpt: Trx represents the thioredoxin protein with no inserted peptide.
In order to identify specific inhibitors of TrioGEFD2, a recently developed strategy was used, this strategy being derived from the yeast two hybrid system, where the cDNA library of preys has been replaced by a combinatorial library of short peptides (20 amino acids) in fusion with the bacterial protein thioredoxin A (Colas et al., 1996). This strategy has been successfully used to isolate specific inhibitors of the cyclin-dependent kinases (Cdks), the cell cycle transcription factor E2F, or the viral HPV16 E6 oncoprotein and HBEV core protein (Colas et al., 1996; Butz et al., 2001; Fabrizzio et al., 1999; Geyer et al., 2000). The TrioGEFD2 bait was constructed as follows: plasmid pMTHATrio1848-2298 (Bellanger et al., 1998) was digested with EcoRI/XhoI and the insert cloned in pEG202EcoRI/XhoI to generate the bait pEG202TroGEFD2. Yeast strain EGY048 (Colas et al., 1996) was transformed with pEG202TrioGEFD2 and subsequently with the library of Thioredoxin constrained aptamers according to standard procedures (Ito et al., 1983). After transformation, cells were allowed to recover for 4 hours in galactose containing medium before plating on selective galactose medium. Of the 2×10^6 screened colonies, those growing in the selective medium were recovered and retested for interaction. […] Binding specificity was investigated by screening for interaction with the following baits: TrioDH2 (a.a. 1848-2096), TrioPH2 (a.a. 2107-2223), TrioGEFD1 (a.a. 1232-1629), Dbl (a.a. 498-826), Vav (ala. 172-598) (Zhang et al, 1994), GEFD2 domain of Kalirin (a.a. 1640-1980)(Penzes et al., 2001), p115RhoGEF (a.a. 391-870)(Wells et al, 2002) and PDZRhoGEF (a.a. 964-1362) (Fukuhara et al., 1999). None of these aptamers interacted with other RhoGEF members such as Dbl, Vav, and the RhoA-specific GEFs p115RhoGEF and PDZRhoGEF.

Molecule	Effect on LPA-induced neurite retraction ([1]; 10 μM LPA, 15 min)	percentage of transfected cells with neurites after LPA addition ([1]; 15 min after 10 μM LPA)	Binding in yeast (Vav)
AREGADGAICGYNLATLVMLGPSERVFCPLCEPCSSDIYELM [TRIPα, 42-amino acid peptide corresponding to the variable region of TRIAPα]	prevents serum- and LPA-induced neurite retraction; also recorded: also inhibited LPA-mediated neurite collapse	more than 37%	–
TRIAPα: aptamer of 154 amino acids: variable region of 42 amino acids inserted into the thioredoxin protein; tested as GST fusion (protein) MSDKIIHLTDDSFDTDVLKADGAILVDFWAEWCGPAREGADGAICGYNLATLVMLGPSERVFCPLCEPCSSDIYELMGPCKMIAPILDEIADEYQGKLTVAKLNIDQNPGTAPKYGIRGIPTLLLFKNGEVASATKVGALSKGQLKEFLDANLA	–	–	−−^1

Reference: patent publication US8088892B2, “Inhibitors of proteins from the Rho-GEF family” (Centre National de la Recherche Scientifique (C.N.R.S.), priority 2002, dated 2012)
